What follows are molecules tested against T1, human TGR5 (Homo sapiens, UniProt Q8TDU6) (assay: cAMP production assay in HEK293-TGR5 cells). Settings: HEK293 cells stably expressing human TGR5; 30 minutes stimulation; LANCE cAMP TR-FRET; read-out: cAMP Production in 293-TGR5 Cells EC50.
T1 construct: expressed in transfected cells; host or cells: HEK-293 cells, stably transfected (pcDNA 3.1, Fugene6, geneticin selection)
T1 sequence (Q8TDU6 1-330): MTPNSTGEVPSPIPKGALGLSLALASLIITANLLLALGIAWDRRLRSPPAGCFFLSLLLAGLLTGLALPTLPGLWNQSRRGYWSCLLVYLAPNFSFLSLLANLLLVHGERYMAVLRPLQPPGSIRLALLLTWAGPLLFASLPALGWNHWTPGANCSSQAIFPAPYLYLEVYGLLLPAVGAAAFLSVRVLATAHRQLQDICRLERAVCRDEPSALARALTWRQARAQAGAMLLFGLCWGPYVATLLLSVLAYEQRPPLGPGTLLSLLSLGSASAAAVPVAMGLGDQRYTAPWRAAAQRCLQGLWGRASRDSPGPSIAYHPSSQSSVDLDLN
Format: cell-based
Protocol: HEK293 cells stably expressing TGR5 (HEK293-TGR5) were established by stably transfecting HEK-293 cells with an expression vector (pcDNA 3.1, Invetrogen) inserted with human TGR5 cDNA using Fugene6 (Roche, Indianapolis, Ind.) according to conventional methods. Cells were grown in DMEM (invitrogen, Carlsbad, Calif.) supplemented with 10% FBS, 1% penicillin/streptomycin under geneticin selection. The presence of TGR5 transcripts in these cells was confirmed using branched DNA (bDNA, Genospectra, Inc., Fremont Calif.) following the manufacturer's protocol and using specific probes for human TGR5. cAMP production assay was performed in high throughput 1536 well format using LANCE cAMP detection kit (Perkin Elmer Inc., Boston, Mass.) according to the manufacturer's protocol. Briefly, HEK293-TGR5 cells were harvested using non-enzymatic cell dissociation buffer (Invitrogen, Carlsbad, Calif.) and suspended in DMEM supplemented with 0.1% FBS at a density of 800,000 cells/ml. Alexa antibody was added to the cell suspension, and 4 ul of the mixture was dispensed in white opaque tissue culture treated Greiner 1536 well plates (USA Scientific, Inc., Ocala, Fla.). After an overnight incubation at 37C in an atmosphere of 10% CO2 and 95% humidity, 1 ul of 5 mM IBMX (Sigma, St. Louis, Mo.) solution in DMEM was dispensed for a final concentration of 1 mM. Cells were then stimulated with test compounds for 30 minutes, after which time 5 ul of detection reagent was added and incubated for 1-7 hrs at room temperature. TR-FRET signal was detected using the Viewlux (Perkin Elmer Inc., Boston Mass.). EC50 values were determined using Graph Pad Prizm analysis (GraphPad Software, Inc).

Compound	EC50
COc1ccc2cc(CNC3CCc4ccccc43)c(-c3ccncc3)nc2c1 (racemic) [Example 86, (±)-N-((7-Methoxy-2-(pyridin-4-yl)quinolin-3-yl)methyl)-2,3-dihydro-1H-inden-1-amine]	< 10 µM
COc1ccc2cc(C(C)NCCc3ccc(Br)cc3)c(-c3ccsc3)nc2c1 (racemic) [Example 143, (±)-N-(4-Bromophenethyl)-1-(7-methoxy-2-(thiophen-3-yl)quinolin-3-yl)ethanamine]	> 10 µM
CC(NCCc1ccc(Br)cc1)c1cc2ccc(O)cc2nc1-c1ccsc1 (racemic) [Example 144, (±)-3-(1-(4-Bromophenethylamino)ethyl)-2-(thiophen-3-yl)quinolin-7-ol]	> 10 µM
COc1ccc2cc(CNCc3ccc(C(F)(F)F)cc3)c(-c3ccsc3)nc2c1 [Example 1, 1-(7-methoxy-2-(thiophen-3-yl)quinolin-3-yl)-N-(4-(trifluoromethyl)benzyl)methanamine]	> 10 µM
COc1ccc2cc(CNCc3cccc(C(F)(F)F)c3)c(-c3ccsc3)nc2c1 [Example 3, 1-(7-Methoxy-2-(thiophen-3-yl)quinolin-3-yl)-N-(3-(trifluoromethyl)benzyl)methanamine]	< 10 µM
Cc1cccc2cc(CNCCc3ccc(Cl)cc3)c(-c3ccsc3)nc12 [Example 4, 2-(4-Chlorophenyl)-N-((8-methyl-2-(thiophen-3-yl)quinolin-3-yl)methyl)ethanamine]	> 10 µM
Cc1cccc2cc(CNCc3ccc(C(F)(F)F)cc3)c(-c3ccsc3)nc12 [Example 5, 1-(8-Methyl-2-(thiophen-3-yl)quinolin-3-yl)-N-(4-(trifluoromethyl)benzyl)methanamine]	< 10 µM
COc1ccc2cc(CNCc3ccc(C(F)(F)F)cc3)c(-c3cccnc3)nc2c1 [Example 6, 1-(7-Methoxy-2-(pyridin-3-yl)quinolin-3-yl)-N-(4-(trifluoromethyl)benzyl)methanamine]	< 10 µM
COc1ccc2cc(CNCCc3ccc(Cl)cc3)c(-c3cccnc3)nc2c1 [Example 7, 2-(4-Chlorophenyl)-N-((7-methoxy-2-(pyridin-3-yl)quinolin-3-yl)methyl)ethanamine]	< 10 µM
COc1ccc2cc(CNCCc3ccc(F)cc3)c(-c3cccnc3)nc2c1 [Example 8, 2-(4-Fluorophenyl)-N-((7-methoxy-2-(pyridin-3-yl)quinolin-3-yl)methyl)ethanamine]	< 10 µM
COc1ccc2cc(CNCc3ccc(OC(F)(F)F)cc3)c(-c3cccnc3)nc2c1 [Example 10, 1-(7-Methoxy-2-(pyridin-3-yl)quinolin-3-yl)-N-(4-(trifluoromethoxy)benzyl)methanamine]	> 10 µM
COc1ccc2cc(CNCc3ccc(N(C)C)cc3)c(-c3cccnc3)nc2c1 [Example 11, 4-(((7-Methoxy-2-(pyridin-3-yl)quinolin-3-yl)methylamino)methyl)-N,N-dimethylaniline]	< 10 µM
FC(F)(F)Oc1ccc2cc(CNCc3ccc(C(F)(F)F)cc3)c(-c3ccsc3)nc2c1 [Example 12, 1-(2-(Thiophen-3-yl)-7-(trifluoromethoxy)quinolin-3-yl)-N-(4-(trifluoromethyl)benzyl)methanamine]	< 10 µM
FC(F)(F)Oc1ccc2cc(CNCCc3ccc(Cl)cc3)c(-c3ccsc3)nc2c1 [Example 13, 2-(4-Chlorophenyl)-N-((2-(thiophen-3-yl)-7-(trifluoromethoxy)quinolin-3-yl)methyl)ethanamine]	> 10 µM
FC(F)(F)Oc1ccc2cc(CNCCc3ccc(Cl)cc3)c(-c3cccnc3)nc2c1 [Example 14, 2-(4-Chlorophenyl)-N-((2-(pyridin-3-yl)-7-(trifluoromethoxy)quinolin-3-yl)methyl)ethanamine]	> 10 µM
FC(F)(F)Oc1ccc2cc(CNCc3ccc(C(F)(F)F)cc3)c(-c3cccnc3)nc2c1 [Example 15, 1-(2-(Pyridin-3-yl)-7-(trifluoromethoxy)quinolin-3-yl)-N-(4-(trifluoromethyl)benzyl)-methanamine]	< 10 µM
FC(F)(F)Oc1ccc2cc(CNCCc3ccc(Br)cc3)c(-c3cccnc3)nc2c1 [Example 16, 2-(4-Bromophenyl)-N-((2-(pyridin-3-yl)-7-(trifluoromethoxy)quinolin-3-yl)methyl)ethanamine]	> 10 µM

Compound	EC50
COc1ccc2cc(CNC(=O)c3ccc(C(F)(F)F)cc3)c(-c3ccsc3)nc2c1 [Example 17, N-((7-methoxy-2-(thiophen-3-yl)quinolin-3-yl)methyl)-4-(trifluoromethyl)benzamide]	> 10 µM
COc1ccc2cc(C(=O)NCc3ccc(C(F)(F)F)cc3)c(-c3ccsc3)nc2c1 [Example 18, 7-methoxy-2-(thiophen-3-yl)-N-(4-(trifluoromethyl)benzyl)quinoline-3-carboxamide]	> 10 µM
COc1ccc2cc(C(=O)NCCc3ccc(Cl)cc3)c(-c3ccsc3)nc2c1 [Example 19, N-(4-Chlorophenethyl)-7-methoxy-2-(thiophen-3-yl)quinoline-3-carboxamide]	< 10 µM
COc1ccc2cc(CNCc3ccc(C(F)(F)F)cc3)c(-c3cnn(C)c3)nc2c1 [Example 20, 1-(7-Methoxy-2-(1-methyl-1H-pyrazol-4-yl)quinolin-3-yl)-N-(4-(trifluoromethyl)benzyl)methanamine]	< 10 µM
COc1ccc2cc(CNCCc3ccc(Cl)cc3)c(-c3cnn(C)c3)nc2c1 [Example 21, 2-(4-Chlorophenyl)-N-((7-methoxy-2-(1-methyl-1H-pyrazol-4-yl)quinolin-3-yl)methyl)ethanamine]	< 10 µM
COc1ccc2cc(CNCCc3ccc(Cl)cc3)c(-c3ccncc3)nc2c1 [Example 22, 2-(4-Chlorophenyl)-N-((7-methoxy-2-(pyridin-4-yl)quinolin-3-yl)methyl)ethanamine]	< 10 µM
COc1ccc2cc(CNCc3ccc(C(F)(F)F)cc3)c(-c3ccncc3)nc2c1 [Example 23, 1-(7-Methoxy-2-(pyridin-4-yl)quinolin-3-yl)-N-(4-(trifluoromethyl)benzyl)methanamine]	< 10 µM
COc1ccc2cc(CNCc3ccc(C(F)(F)F)cc3)c(-c3ccccc3F)nc2c1 [Example 24, 1-(2-(2-Fluorophenyl)-7-methoxyquinolin-3-yl)-N-(4-(trifluoromethyl)benzyl)methanamine]	> 10 µM
COc1ccc2cc(CNCCc3ccc(Cl)cc3)c(-c3ccccc3F)nc2c1 [Example 25, 2-(4-Chlorophenyl)-N-((2-(2-fluorophenyl)-7-methoxyquinolin-3-yl)methyl)ethanamine]	< 10 µM
COc1ccc2nc(-c3ccsc3)c(CNCc3ccc(C(F)(F)F)cc3)cc2c1 [Example 26, 1-(6-Methoxy-2-(thiophen-3-yl)quinolin-3-yl)-N-(4-(trifluoromethyl)benzyl)methanamine]	> 10 µM
COc1ccc2nc(-c3ccsc3)c(CNCCc3ccc(Cl)cc3)cc2c1 [Example 27, 2-(4-Chlorophenyl)-N-((6-methoxy-2-(thiophen-3-yl)quinolin-3-yl)methyl)ethanamine]	> 10 µM
FC(F)(F)c1ccc(CNCc2cc3ccccc3nc2-c2ccsc2)cc1 [Example 28, 1-(2-(Thiophen-3-yl)quinolin-3-yl)-N-(4-(trifluoromethyl)benzyl)-methanamine]	< 10 µM
Clc1ccc(CCNCc2cc3ccccc3nc2-c2ccsc2)cc1 [Example 29, 2-(4-Chlorophenyl)-N-((2-(thiophen-3-yl)quinolin-3-yl)methyl)-ethanamine]	> 10 µM
COc1ccc2cc(CNCc3ccc(C(F)(F)F)cc3)c(-c3nccs3)nc2c1 [Example 30, 1-(7-methoxy-2-(thiazol-2-yl)quinolin-3-yl)-N-(4-(trifluoromethyl)benzyl)methanamine]	> 10 µM
COc1ccc2cc(CNCCc3ccc(Cl)cc3)c(-c3nccs3)nc2c1 [Example 31, 2-(4-Chlorophenyl)-N-((7-methoxy-2-(thiazol-2-yl)quinolin-3-yl)methyl)ethanamine]	> 10 µM
COc1ccc2cc(CN(CCc3ccc(Cl)cc3)C(C)=O)c(-c3ccsc3)nc2c1 [Example 32, N-(4-Chlorophenethyl)-N-((7-methoxy-2-(thiophen-3-yl)quinolin-3-yl)methyl)acetamide]	> 10 µM
COc1ccc2cc(CN(CCc3ccc(Cl)cc3)S(C)(=O)=O)c(-c3ccsc3)nc2c1 [Example 33, N-(4-Chlorophenethyl)-N-((7-methoxy-2-(thiophen-3-yl)quinolin-3-yl)methyl)methanesulfonamide]	> 10 µM

— US20080221161A1, “HETEROCYCLIC MODULATORS OF TGR5 FOR TREATMENT OF DISEASE” (KALYPSYS, INC., priority 2007, published 2008)
